Source: ChEMBL document CHEMBL4610101, “Antimalarial Eudesmane Sesquiterpenoids from Dobinea delavayi” (2020)
Active and inactive are the calls of the source. The calls are words filed in the database; no cut-off is given here.

Key:
[1] = tested on: Plasmodium yoelii; experiment: (§1) Antimalarial activity against Plasmodium yoelii BY265RFP infected in Kunming mouse assessed as inhibition of parasitemia at 10 mg/kg/day, ig administered for 4 days starting from 3 hrs post infection and measured at 4 days post infection by Wright-Giemsa staining based microscopic assay relative to control; format: functional; conditions: po
[2] = tested on: Plasmodium yoelii; experiment: as §1, with “30” for “10”; format: functional; conditions: po
[3] = tested on: Plasmodium yoelii; experiment: Disruption of mitochondrial membrane potential in Plasmodium yoelii BY265RFP infected in mouse erythrocytes assessed as red/green fluorescence ratio at 3 uM incubated for 12 hrs by JC1 staining based laser-scanning confocal microscopic analysis (reference value: 1.55 +/- 0.08); format: functional
[4] = tested on: Plasmodium yoelii; experiment: Disruption of mitochondrial membrane potential in Plasmodium yoelii BY265RFP infected in mouse erythrocytes assessed as red/green fluorescence ratio at 0.3 uM incubated for 12 hrs by JC1 staining based laser-scanning confocal microscopic analysis (reference value: 1.55 +/- 0.08); format: functional
[5] = tested on: Plasmodium yoelii; experiment: as §1, with “50” for “10”; format: functional; conditions: po
[6] = tested on: Plasmodium yoelii; experiment: Disruption of mitochondrial membrane potential in Plasmodium yoelii BY265RFP infected in mouse erythrocytes assessed as red/green fluorescence ratio at 0.03 uM incubated for 12 hrs by JC1 staining based laser-scanning confocal microscopic analysis (reference value: 1.55 +/- 0.08); format: functional
[7] = tested on: Plasmodium yoelii; experiment: Antimicrobial activity against Plasmodium yoelii BY265RFP infected in Kunming mouse assessed as recovery of erythrocyte at 15 to 30 mg/kg/day, ig administered for 4 days starting from 3 hrs post infection and measured at 4 days post infection; format: functional, organism-based
[8] = tested on: Plasmodium yoelii; experiment: as §1, with “15” for “10”; format: functional; conditions: po
[9] = tested on: Mus musculus; experiment: (§2) Immunomodulatory activity in Kunming mouse infected with Plasmodium yoelii BY265RFP assessed as increase in IFN-gamma at 30 mg/kg/day, ig administered for 4 days starting from 3 hrs post infection and measured at 4 days post infection by FACSCalibur flow cytometry; format: functional, organism-based
[10] = tested on: Mus musculus; experiment: Immunomodulatory activity in Kunming mouse infected with Plasmodium yoelii BY265RFP assessed as decrease in IgG at 30 mg/kg/day, ig administered for 4 days starting from 3 hrs post infection and measured at 4 days post infection by FACSCalibur flow cytometry; format: functional, organism-based
[11] = tested on: Mus musculus; experiment: Immunomodulatory activity in Kunming mouse infected with Plasmodium yoelii BY265RFP assessed as decrease in IL-10 at 30 mg/kg/day, ig administered for 4 days starting from 3 hrs post infection and measured at 4 days post infection by FACSCalibur flow cytometry; format: functional, organism-based
[12] = tested on: Mus musculus; experiment: as §2, with “proportion of splenic CD4+CD25+ Tregs within CD4+ cells” for “increase in IFN-gamma”, “cytometry (reference value: 11.2 +/- 0.5%)” for “cytometry”; format: functional
[13] = tested on: Plasmodium yoelii; experiment: Induction of intracellular ROS production in Plasmodium yoelii BY265RFP infected in mouse erythrocytes at 0.03 to 3 uM after 12 hrs by DCFH-DA staining based laser-scanning confocal microscopic analysis; format: functional, organism-based
[14] = tested on: Hemozoin; experiment: Inhibition of beta-hematin formation incubated for 5 hrs
[15] = tested on: Mus musculus; experiment: as §2, with “proportion of splenic CD4+CD25+ Tregs within CD4+ cells” for “increase in IFN-gamma”, “10” for “30”, “cytometry (reference value: 11.2 +/- 0.5%)” for “cytometry”; format: functional
[16] = tested on: Plasmodium yoelii; experiment: Antimicrobial activity against Plasmodium yoelii BY265RFP infected in Kunming mouse assessed as relief from hepatomegaly at 15 to 30 mg/kg/day, ig administered for 4 days starting from 3 hrs post infection and measured at 4 days post infection; format: functional, organism-based
[17] = tested on: Mus musculus; experiment: Immunomodulatory activity in Kunming mouse infected with Plasmodium yoelii BY265RFP assessed as increase in IL-12 at 30 mg/kg/day, ig administered for 4 days starting from 3 hrs post infection and measured at 4 days post infection by FACSCalibur flow cytometry; format: functional, organism-based
[18] = tested on: Plasmodium yoelii; experiment: Antimicrobial activity against Plasmodium yoelii BY265RFP infected in Kunming mouse assessed as increase in hemoglobin level at 15 to 30 mg/kg/day, ig administered for 4 days starting from 3 hrs post infection and measured at 5 days post infection; format: functional, organism-based
[19] = tested on: Mus musculus; experiment: as §2, with “proportion of splenic CD4+CD25+ Tregs within CD4+ cells” for “increase in IFN-gamma”, “15” for “30”, “cytometry (reference value: 11.2 +/- 0.5%)” for “cytometry”; format: functional
[20] = tested on: Plasmodium yoelii; experiment: Antimicrobial activity against Plasmodium yoelii BY265RFP infected in Kunming mouse assessed as recovery of abdominal temperature at 15 to 30 mg/kg/day, ig administered for 4 days starting from 3 hrs post infection and measured at 5 days post infection; format: functional, organism-based

In the case of `CCN(CC)CCCC(C)Nc1ccnc2cc(Cl)ccc12` (stereo not drawn) [CHLOROQUINE PHOSPHATE], the inhibition in vivo at 10 mg/kg/day [1] is reported as 97.9%.

For `C/C=C(/C)C(=O)O[C@H]1CC[C@]2(C)C[C@@H]3OC(=O)C(C)=C3C[C@H]2[C@]1(C)OC(C)=O`, the inhibition in vivo at 30 mg/kg/day [2] was 15%.

`C[C@@H]1CC[C@H]2[C@@H](C)C(=O)O[C@@H]3O[C@@]4(C)CC[C@@H]1[C@]32OO4` [ARTEMISININ] gave a Ratio [3] of 1.18, a Ratio [4] of 1.33 and an inhibition in vivo at 50 mg/kg/day [5] of 54.4%. The Ratio [6] was 1.43.

Work on `C/C=C(/C)C(=O)O[C@H]1CC[C@]2(C)C[C@]3(O)OC(=O)C(C)=C3C[C@H]2[C@]1(C)O` yielded an inhibition in vivo at 30 mg/kg/day [2] of -1.9%.

For `C/C=C(/C)C(=O)O[C@H]1CC[C@]2(C)C[C@]3(O)OC(=O)C(C)=C3C[C@H]2[C@]1(C)OC(C)=O`, the inhibition in vivo at 30 mg/kg/day [2] was 14.5%.

Compound `C/C=C(/C)C(=O)O[C@H]1CC[C@]2(C)CC(=O)C[C@H]2[C@]1(C)OC(C)=O` has an inhibition in vivo at 30 mg/kg/day [2] of 18.5%.

For `C/C=C(/C)C(=O)O[C@H]1CC[C@]2(C)C[C@@H](C(C)=O)C[C@H]2[C@]1(C)OC(C)=O`, the Ratio [3] was 1.22, the Ratio [4] was 1.35 and the Activity [7] was “Active”. For the same compound, the inhibition in vivo at 15 mg/kg/day [8] was 33.8%, the Activity [9] was “Active” and the Activity [10] was “Active”. For the same compound, the Activity [11] was “Active”, the Activity [12] was 7.6% and the inhibition in vivo at 30 mg/kg/day [2] was 59.1%. The Activity [13] was “Active”, the inhibition [14] was “inactive” and the Activity [15] was 6.7%. The Activity [16] was “Active”, the Activity [17] was “Active” and the Activity [18] was “Active”. The Ratio [6] was 1.51, the Activity [19] was 8.6% and the Activity [20] was “Active”.

`C/C=C(/C)C(=O)O[C@H]1CC[C@]2(C)CC(=O)[C@@H](C(C)C(=O)O)C[C@H]2[C@]1(C)O` (stereo partly drawn) was tested, and the inhibition in vivo at 30 mg/kg/day [2] was 3.9%.
